# From patent US12172919B2, “Deconstruction of oilsand materials using ionic liquids” (ADJACENCY LABS CORP., priority 2017, dated 2024)
# Where two headings read alike, the source gives them in different places.
# Legend:
# [1] = In-situ extraction: IL injection through column packed with oil sand; conditions: 100 g oil sand, 0.5 mL/min for 26 h, 24 h soak, 2 h re-injection
# Description: 100 g dry oil sand was packed into a steel tube (1.5×30 cm). The packed steel tube then was mounted into apparatus to allow injection of desired fluid through the oil sand while collecting the effluent for subsequent analysis (FIG. 61). The injection of [C8NH3][Oleate] was continuous for 26 h at an injection rate of 0.5 mL/min, and the injection pressure was stabilized in the range 1940-2000 kPa. The breakthrough time was around 35 min. This indicates the pore volume was around 17.5 ml. The total amount of [C8NH3][Oleate] injected was around 783 ml. […] At the first 2.5 h of injection, the bitumen recovery is significant, and the fluid recovered is black. However, with continuing injection the black intensity decreases gradually till the effluent is clear [C8NH3][Oleate] after 26 h.
# After 26 h of injection, the pump was stopped and the [C8NH3][Oleate]/Oil sand system in the steel column was left to soak for 24 h. Then injection was re-started with the same injection rate (0.5 mL/min) and the pressure stabilized at around 1850 kPa (similar level before soaking). The blackness of the fluid samples recovered during 2 h of injection post-soaking is not as intense as that during the same time for [C8NH3][Oleate] injection into the fresh oil sand. […]
# After terminating the experiment, the bitumen still in the oil sand was quantified using Dean Stark.
# [2] = Thermogravimetric analysis (TGA); assay type: physicochemical
substance,measurement,setting,value
octylammonium oleate [[C8NH3][Oleate]],"bitumen remaining in oil sand by Dean Stark extraction, of the initial amount of bitumen",[1],47.34%
same,thermal decomposition temperature,[2],129 °C
same,[C8NH3][Oleate] solubility,solvent: Acetonitrile,− (Insoluble (0.2 g in 3 mL solvent))
same,[C8NH3][Oleate] solubility,solvent: Chloroform,+ (Soluble (0.2 g in 0.5 mL solvent))
same,[C8NH3][Oleate] solubility,solvent: DI water,− (Insoluble (0.2 g in 3 mL solvent))
same,[C8NH3][Oleate] solubility,solvent: Dichlorobenzene,+ (Soluble (0.2 g in 0.5 mL solvent))
same,[C8NH3][Oleate] solubility,solvent: Dichloromethane,+ (Soluble (0.2 g in 0.5 mL solvent))
same,[C8NH3][Oleate] solubility,solvent: Dimethyl sulfoxide,− (Insoluble (0.2 g in 3 mL solvent))
same,[C8NH3][Oleate] solubility,solvent: Hexane,+ (Soluble (0.2 g in 0.5 mL solvent))
same,[C8NH3][Oleate] solubility,solvent: Methanol,+ (Soluble (0.2 g in 0.5 mL solvent))
same,[C8NH3][Oleate] solubility,solvent: Xylene,+ (Soluble (0.2 g in 0.5 mL solvent))
